Measured values as given in article PMC8113459, “Selective inhibition of cullin 3 neddylation through covalent targeting DCN1 protects mice from acetaminophen-induced liver toxicity” (Nature Communications, 2021).

Assays:
[1] = tested on: p21, BIM and CDT1 proteins; assay: Western blot, CRL1 and CRL4A substrates; assay type: cell-based, human
Method: (§1) Western blotting was performed as described previously. Treated cells were lysed by RIPA buffer supplemented with protease inhibitor. The expression level of indicated proteins was examined by immunoblotting analysis and GAPDH was used as the loading control. Antibodies were purchased commercially: cullin 1 (sc-17775, 1:500 dilution) and cullin 2 (sc-166506, 1:500 dilution) from Santa Cruz Biotech (Santa Cruz, CA); cullin 4A (PA5-14542, 1:1000 dilution), cullin 4B (PA5-50647, 1:1000 dilution), and DCN3 (DCUN1D3, PA5-44000, 1:1000 dilution) from Thermo Fisher Scientific (Wayne, MI); cullin 3 (2759, 1:1000), NRF2 (12721, 1:1000 dilution), HO-1 (70081, 1:1000 dilution), and Bim (2819, 1:1000 dilution) from Cell Signaling Technology (Boston, MA); DCN1 (GWB-E3D700, 1:1000 dilution) from GenWay Biotech (San Diego, CA); and cullin 5 (A302-173A, 1:500 dilution) from Bethyl Labs (Montgomery, TX). Results are representative of two independent experiments.

DCN3 protein = DCN3 protein (Homo sapiens, UniProt Q8IWE4); assay: Intact-protein mass spectrometric analysis, Method B (DCN3); assay type: binding; conditions: 3 h incubation
DCN3 protein, sequence (Q8IWE4 86-304 limits assumed): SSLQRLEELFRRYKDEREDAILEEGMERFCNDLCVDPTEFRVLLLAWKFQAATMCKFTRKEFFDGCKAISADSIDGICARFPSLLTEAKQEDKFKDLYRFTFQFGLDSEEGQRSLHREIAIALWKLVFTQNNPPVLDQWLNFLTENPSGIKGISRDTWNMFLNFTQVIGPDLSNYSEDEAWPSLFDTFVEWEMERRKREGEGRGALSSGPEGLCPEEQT
Method: Method B: Recombinant DCN1 or DCN3 protein (100 nM in 25 mM Tris 7.5, 200 mM NaCl, 1 mM DTT buffer) was incubated with 1.2-fold excess of the DCN1 inhibitors at 37 °C for 10 min, 1 h, or 3 h. Following incubation, the protein was analyzed by LC–MS (Agilent Q-TOF 6545) under the following conditions: fragmentor voltage, 300 V; skimmer voltage, 75 V; nozzle voltage, 100 V; sheath gas temperature, 350 °C; and drying gas temperature, 325 °C. MassHunter Qualitative Analysis software (Agilent) was used to analyze the data. Intact protein masses were obtained using the maximum entropy deconvolution algorithm. The mass spectrometry data in Supplementary Figs. 14–17 were generated by Method B.

NRF2 protein = assay: Western blot, NRF2 protein accumulation in cells; assay type: cell-based, human
Method: as §1

[2] = tested on: NRF2 protein in mouse liver tissue; assay: Pharmacodynamics: NRF2 protein in mouse liver tissue (western blot); assay type: in vivo; conditions: single dose 25 mg/kg IP; for upregulation of NRF2 protein in the mouse liver: C57BL/6 male mice
Method: Fig. 7 DI-1859 effectively increases the level of NRF2 protein in the liver tissue and protects liver tissue damage induced by acetaminophen (APAP) in mice. a Western blotting analysis of the effect of DI-1548 or DI-1859 on the level of NRF2 protein in mouse liver tissue. Liver tissues harvested from C57BL/6 male mice treated with DI-1548 or DI-1859 at 25 mg/kg via intraperitoneal (IP) injection was lysed with RIAP buffer. The expression level of NRF2 protein was examined by western blotting. GAPDH was used a loading control. Representative images of two independent experiments are shown. b Analysis of the serum alanine aminotransferase (ALT) level in mice. The time (h) counted from APAP administration in G2 and G5-8, from DI-1859 or vehicle administration in G1, G3, and G4. Data are presented as mean ± s.d. with n = 9 (G1), 9 (G2), 8 (G3), 8 (G4), 9 G5), 9 (G6), 9 (G7), and 9 (G8). c Immunohistological analysis of mouse liver tissues. Images are representatives in each group. Images were taken with a 100× objective. Scale bar: 100 µm. d Analysis of the ROS level in mouse liver tissue. Data are presented as mean ± s.d. with n = 9 (G1), 8 (G2), 8 (G3), 8 (G4), 8 (G5), 6 (G6), 9 (G7), and 9 (G8). G1: Vehicle (qD for 3 days); G2: APAP (400 mg/kg, a single dose); G3: DI-1859 (25 mg/kg, qD for 3 days); G4: DI-1859 (50 mg/kg, qD for 3 days); G5: DI-1859 (25 mg/kg, qD for 3 days), a single dose of APAP at 400 mg/kg administered 3 h after the second dose of DI-1859 administration on day 2; G6: DI-1859 (50 mg/kg, qD for 3 days), a single dose of APAP at 400 mg/kg administered 3 h after the second dose of DI-1859 administration on day 2; G7: APAP (400 mg/kg, a single dose), followed with DI-859 at 25 mg/kg 3 h after APAP administration and two additional doses on day 2 and day 3; and G8: APAP (400 mg/kg, a single dose), followed with DI-859 at 50 mg/kg 3 h after APAP administration and two additional doses on day 2 and day 3. n = 8–9 mice per group. Source data are provided as a Source Data file.
Western blotting was performed as described previously. […]

KEAP1 and p62 proteins = assay: Western blot, KEAP1 and p62 in U2OS and THLE2 cells; assay type: cell-based, human; conditions: 6 h
Method: as §1
Supplementary Figure 22. Western blotting analysis of Keap1 and p62 in U2OS cells (a) and […]
The cells were treated with compounds as indicated for 6 h. Treated cells were harvested and lysed with RIPA buffer. The expression of P62 and Keap1 were examined by western blotting analysis. Antibody information:
Keap1 (cst, #8047), P62 (cst,#5114). GAPDH was used as a loading control. Representative images of two independent experiments are shown. […]

neddylation of cullin 3 = assay: Western blot, cullin 3 neddylation in cells of different tissue types (U2OS, THLE2, MDA-MB-231, KYSE70, HCT116); assay type: cell-based, human
Method: as §1

Structure (SMILES)	effect on the levels of p21, BIM and CDT1 proteins ([1]; concentrations up to 1000 nM)	covalent complex formation with DCN3 (DCN3 protein)	times more potent than DI-591 in inducing accumulation of NRF2 protein (NRF2 protein)	upregulation of NRF2 protein in the mouse liver [2]	effect on protein levels of KEAP1 and p62 (KEAP1 and p62 proteins)	concentration achieving profound inhibition of the neddylation of cullin 3 (neddylation of cullin 3)	concentration as low as which the level of neddylated cullin 3 is significantly reduced (neddylation of cullin 3)	effect on protein level of CDT1 ([1]; THLE2, Fig. 6b)	persistence of upregulation of NRF2 in mouse liver [2]
C=C(CN1CCOCC1)C(=O)NC[C@@H](NC(=O)[C@H](Cc1nc2ccc(C(C)C)cc2s1)NC(=O)CC)C1CCCCC1 [DI-1548]	no effect	fail to form any detectable complex	100–1000 times	robust upregulation	no obvious effect	1 to 3 nM	≤ 0.3 nM		
C=C(CN(C)C)C(=O)NC[C@@H](NC(=O)[C@H](Cc1nc2ccc(C(C)C)cc2s1)NC(=O)CC)C1CCCCC1 [DI-1859]		fail to form any detectable complex	100–1000 times	robust upregulation	no obvious effect	1 to 3 nM	≤ 0.3 nM	no effect	> 24 h
